Measured values reported in US8530504B2, “Pyrazolothiazole compound” (Eisai R&D Management Co., Ltd., priority 2009, dated 2013).

Molecular target: human CRFR1 (Homo sapiens (Human), UniProt P34998)
Experiment: CRFR1 Binding Test;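 also: nonspecific binding was determined with a 4,000-fold excess of unlabelled sauvagine and subtracted from every reading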
Details: competition with 100 pM 125I-CRF, SPA method, membrane fraction of human CRFR1-expressing HEK293 cells; read-out: CRF1 receptor binding capacity IC50

Chain of human CRFR1 (P34998 24-415): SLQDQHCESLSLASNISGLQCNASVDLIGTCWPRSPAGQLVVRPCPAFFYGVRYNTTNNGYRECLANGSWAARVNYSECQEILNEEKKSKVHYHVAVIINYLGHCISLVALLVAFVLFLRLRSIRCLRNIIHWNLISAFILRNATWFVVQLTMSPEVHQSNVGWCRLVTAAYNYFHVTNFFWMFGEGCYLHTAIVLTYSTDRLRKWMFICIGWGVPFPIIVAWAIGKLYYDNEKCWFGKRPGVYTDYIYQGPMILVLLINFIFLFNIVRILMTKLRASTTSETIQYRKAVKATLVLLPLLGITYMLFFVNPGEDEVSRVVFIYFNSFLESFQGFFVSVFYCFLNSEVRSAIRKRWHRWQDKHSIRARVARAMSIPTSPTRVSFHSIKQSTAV

| IC50 | Structure (SMILES) |
| --- | --- |
| 89 nM | CCOc1nn2c(-c3c(OC)cc(COC)cc3OC)csc2c1N(CC1CC1)C1CCOCC1 [Example 81, N-(Cyclopropylmethyl)-3-[2,6-dimethoxy-4-(methoxymethyl)phenyl]-6-ethoxy-N-(tetrahydro-2H-pyran-4-yl)-pyrazolo[5,1-b][1,3]thiazole-7-amine] |
| 58 nM | COCc1cc(OC)c(-c2csc3c(N(CCCF)Cc4cccnc4)c(OC)nn23)c(OC)c1 [Example 71, 3-[2,6-Dimethoxy-4-(methoxymethyl)phenyl]-N-(3-fluoropropyl)-6-methoxy-N-(pyridin-3-ylmethyl)-pyrazolo[5,1-b][1,3]thiazole-7-amine] |
| 66 nM | COCCCN(c1c(OC)nn2c(-c3c(Cl)cc(COC)cc3OC)csc12)C1CCCC1 [Example 73, 3-[2-Chloro-6-methoxy-4-(methoxymethyl)phenyl]-N-cyclopentyl-6-methoxy-N-(3-methoxypropyl)pyrazolo[5,1-b][1,3]thiazole-7-amine] |
| 47 nM | CCOc1nn2c(-c3c(OC)cc(COC)cc3OC)csc2c1N(CC1CCC1)C1CCOCC1 [Example 83, N-(Cyclobutylmethyl)-3-[2,6-dimethoxy-4-(methoxymethyl)phenyl]-6-ethoxy-N-(tetrahydro-2H-pyran-4-yl)-pyrazolo[5,1-b][1,3]thiazole-7-amine] |
| 80 nM | CCN(CC1C2COCC21)c1c(OC)nn2c(-c3c(OC)cc(C4CC4)cc3OC)csc12 (single isomer, unassigned; diastereomer 1) [Example 97, 3-(4-Cyclopropyl-2,6-dimethoxyphenyl)-N-ethyl-6-methoxy-N-[3-oxabicyclo[3.1.0]hex-6-ylmethyl]pyrazolo[5,1-b][1,3]thiazole-7-amine (diastereomer 1)] |
| 101 nM | CCCCN(c1c(OC)nn2c(-c3c(OC)cc(C=O)cc3OC)csc12)C1CCOCC1 [Example 103] |
| 76 nM | CCCN(c1c(OCC)nn2c(-c3c(OC)cc(COC)cc3OC)csc12)C1CCOCC1 [Example 79, 3-[2,6-Dimethoxy-4-(methoxymethyl)phenyl]-6-ethoxy-N-propyl-N-(tetrahydro-2H-pyran-4-yl)pyrazolo[5,1-b][1,3]thiazole-7-amine] |
| 61 nM | COCc1cc(OC)c(-c2csc3c(N(CCCF)Cc4ccncc4)c(OC)nn23)c(OC)c1 [Example 70, 3-[2,6-Dimethoxy-4-(methoxymethyl)phenyl]-N-(3-fluoropropyl)-6-methoxy-N-(pyridin-4-ylmethyl)-pyrazolo[5,1-b][1,3]thiazole-7-amine] |
| 51 nM | CCCN(CC1CCOC1)c1c(OCC)nn2c(-c3c(OC)cc(COC)cc3OC)csc12 (stereo not shown) [Example 84, 3-[2,6-Dimethoxy-4-(methoxymethyl)phenyl]-6-ethoxy-N-propyl-N-(tetrahydrofuran-3-ylmethyl)pyrazolo[5,1-b][1,3]thiazole-7-amine] |
| 75 nM | COCc1cc(OC)c(-c2csc3c(N(CCCF)Cc4ccccn4)c(OC)nn23)c(OC)c1 [Example 72, 3-[2,6-Dimethoxy-4-(methoxymethyl)phenyl]-N-(3-fluoropropyl)-6-methoxy-N-(pyridin-2-ylmethyl)-pyrazolo[5,1-b][1,3]thiazole-7-amine] |
| 63 nM | CCCCN(c1c(OCC)nn2c(-c3c(OC)cc(COC)cc3OC)csc12)C1CCOCC1 [Example 82, N-Butyl-3-[2,6-dimethoxy-4-(methoxymethyl)phenyl]-6-ethoxy-N-(tetrahydro-2H-pyran-4-yl)-pyrazolo[5,1-b][1,3]thiazole-7-amine] |
| 88 nM | COCc1cc(OC)c(-c2csc3c(N(CC4CCC4)CC4C5COCC54)c(OC)nn23)c(OC)c1 (single isomer, unassigned; diastereomer 1) [Example 98, N-(Cyclobutylmethyl)-3-[2,6-dimethoxy-4-(methoxymethyl)phenyl]-6-methoxy-N-[3-oxabicyclo[3.1.0]hex-6-ylmethyl]-pyrazolo[5,1-b][1,3]thiazole-7-amine (diastereomer 1)] |
| 62 nM | COCc1cc(OC)c(-c2csc3c(N(CC4CC4)CC4C5COCC54)c(OC)nn23)c(OC)c1 (single isomer, unassigned; diastereomer 2) [Example 96, N-(Cyclopropylmethyl)-3-[2,6-dimethoxy-4-(methoxymethyl)phenyl]-6-methoxy-N-[3-oxabicyclo[3.1.0]hex-6-ylmethyl]-pyrazolo[5,1-b][1,3]thiazole-7-amine (diastereomer 2)] |

Further lines, the compound ahead of its results:

| Structure (SMILES) | IC50 |
| --- | --- |
| CCN(c1c(OC)nn2c(-c3c(OC)cc(COC)cc3OC)csc12)C1CCCC1 [Example 66, N-Cyclopentyl-3-[2,6-dimethoxy-4-(methoxymethyl)phenyl]-N-ethyl-6-methoxypyrazolo[5,1-b][1,3]thiazole-7-amine] | 26 nM |
| COCc1cc(OC)c(-c2c(C)sc3c(N(CC4CC4)CC4CCOC4)c(OC)nn23)c(OC)c1 (stereo not shown) [Example 8, Cyclopropylmethyl-[3-(2,6-dimethoxy-4-methoxymethyl-phenyl)-6-methoxy-2-methyl-pyrazolo[5,1-b][1,3]thiazol-7-yl]-(tetrahydro-furan-3-ylmethyl)-amine] | 51 nM |
| CCOCc1cc(OC)c(-c2csc3c(N(CCCF)C4CCOCC4)c(OC)nn23)c(OC)c1 [Example 35, [3-(4-Ethoxymethyl-2,6-dimethoxy-phenyl)-6-methoxy-pyrazolo[5,1-b][1,3]thiazol-7-yl]-(3-fluoro-propyl)-(tetrahydro-pyran-4-yl)-amine] | 89 nM |
| COCCCN(c1c(OC)nn2c(-c3c(OC)cc(COC)cc3OC)csc12)C1CCCC1 [Example 63, N-Cyclopentyl-3-[2,6-dimethoxy-4-(methoxymethyl)phenyl]-6-methoxy-N-(3-methoxypropyl)pyrazolo[5,1-b][1,3]thiazole-7-amine] | 61 nM |
| COCCCN(c1c(OC)nn2c(-c3c(OC)cc(C4CC4)cc3OC)csc12)C1CCCC1 [Example 69, N-Cyclopentyl-3-(4-cyclopropyl-2,6-dimethoxyphenyl)-6-methoxy-N-(3-methoxypropyl)pyrazolo[5,1-b][1,3]-thiazole-7-amine] | 48 nM |
| COCCN(c1c(OC)nn2c(-c3c(OC)cc(COC)cc3OC)csc12)C1CCCC1 [Example 53, N-Cyclopentyl-3-[2,6-dimethoxy-4-(methoxymethyl)phenyl]-6-methoxy-N-(2-methoxyethyl)pyrazolo[5,1-b][1,3]thiazole-7-amine] | 18 nM |
| CCCN(CCCOC)c1c(OC)nn2c(-c3c(OC)cc(COC)cc3OC)csc12 [Example 39, 3-[2,6-Dimethoxy-4-(methoxymethyl)phenyl]-6-methoxy-N-(3-methoxypropyl)-N-propylpyrazolo[5,1-b][1,3]thiazole-7-amine] | 57 nM |
| COCCN(CC1CCC1)c1c(OC)nn2c(-c3c(OC)cc(COC)cc3OC)csc12 [Example 48, N-(Cyclobutylmethyl)-3-[2,6-dimethoxy-4-(methoxymethyl)phenyl]-6-methoxy-N-(2-methoxyethyl)pyrazolo[5,1-b][1,3]thiazole-7-amine] | 25 nM |
| COCCN(CC(C)C)c1c(OC)nn2c(-c3c(OC)cc(COC)cc3OC)csc12 [Example 55, 3-[2,6-Dimethoxy-4-(methoxymethyl)phenyl]-N-isobutyl-6-methoxy-N-(2-methoxyethyl)pyrazolo[5,1-b][1,3]thiazole-7-amine] | 19 nM |
| CCOCc1cc(OC)c(-c2csc3c(N(CC4CCC4)C4CCOC4)c(OC)nn23)c(OC)c1 (stereo not shown) [Example 47, N-(Cyclobutylmethyl)-3-[4-(ethoxymethyl)-2,6-dimethoxyphenyl]-6-methoxy-N-(tetrahydrofuran-3-yl)pyrazolo[5,1-b][1,3]thiazole-7-amine] | 32 nM |
| CCc1cc(OC)c(-c2csc3c(N(CC4CC4)CC4CCOC4)c(OC)nn23)c(OC)c1 (stereo not shown) [Example 23, Cyclopropylmethyl-[3-(4-ethyl-2,6-dimethoxy-phenyl)-6-methoxy-pyrazolo[5,1-b][1,3]thiazol-7-yl]-(tetrahydro-furan-3-ylmethyl)amine] | 44 nM |
| CCCN(CCC)c1c(OC)nn2c(-c3c(OC)cc(COC)cc3OC)csc12 [Example 24, 3-[2,6-Dimethoxy-4-(methoxymethyl)phenyl]-6-methoxy-N,N-dipropylpyrazolo[5,1-b][1,3]thiazole-7-amine] | 26 nM |
| CCCN(c1c(OC)nn2c(-c3c(OC)cc(COC)cc3OC)csc12)C1CCCOCC1 (stereo not shown) [Example 34, 3-[2,6-Dimethoxy-4-(methoxymethyl)phenyl]-6-methoxy-N-oxepan-4-yl-N-propylpyrazolo[5,1-b][1,3]thiazole-7-amine] | 130 nM |
| CCCN(c1c(OC)nn2c(-c3c(OC)cc(COC)cc3OC)c(CC)sc12)C1CCOCC1 [Example 9, [3-(2,6-Dimethoxy-4-methoxymethyl-phenyl)-2-ethyl-6-methoxy-pyrazolo[5,1-b][1,3]thiazol-7-yl]-propyl-(tetrahydro-pyran-4-yl)-amine] | 116 nM |
| COCCN(c1c(OC)nn2c(-c3c(OC)cc(COC)cc3OC)csc12)C1CCCCC1 [Example 54, N-Cyclohexyl-3-[2,6-dimethoxy-4-(methoxymethyl)phenyl]-6-methoxy-N-(2-methoxyethyl)pyrazolo[5,1-b][1,3]thiazole-7-amine] | 20 nM |
| COCCCN(CC1CC1)c1c(OC)nn2c(-c3c(OC)cc(COC)cc3OC)csc12 [Example 32, N-(Cyclopropylmethyl)-3-[2,6-dimethoxy-4-(methoxymethyl)phenyl]-6-methoxy-N-(3-methoxypropyl)pyrazolo[5,1-b][1,3]thiazole-7-amine] | 57 nM |
| CCCN(CC1CCOC1)c1c(OC)nn2c(-c3cnc(N(C)C)cc3OC)csc12 (stereo not shown) [Example 16, [3-(6-Dimethylamino-4-methoxy-pyridin-3-yl)-6-methoxy-pyrazolo[5,1-b][1,3]thiazol-7-yl]-propyl-(tetrahydro-furan-3-ylmethyl)-amine] | 132 nM |
| CCCN(c1c(OC)nn2c(-c3c(OC)cc(C4CC4)cc3OC)csc12)C1CCOCC1 [Example 61, 3-(4-Cyclopropyl-2,6-dimethoxyphenyl)-6-methoxy-N-propyl-N-(tetrahydro-2H-pyran-4-yl)pyrazolo[5,1-b][1,3]thiazole-7-amine] | 39 nM |
